Assay results from patent US20230003721A1, “MITOTHERAPEUTICS FOR THE TREATMENT OF BRAIN DISORDERS” (The University of Florida Research Foundation, Inc., priority 2019, published 2023).
Where a name gives a salt, the structure may show the parent alone. Read-outs that look alike come from different tables or passages of the source.

Legend:
[1] = system: primary forebrain neurons; experiment: cells; conditions: for EC50: Mus musculus, Neuron
Method: Primary forebrain cell culture and maintenance. Forebrains of P0 Mt or Mt/Ai14 pups without olfactory bulbs and meninges were collected and placed in ice cold Ca^2+ and Mg^2+ free HBSS supplemented with 2 μg/ml gentamicin, 25 mM D-glucose, 1 mM pyruvate and 20 mM HEPES. Brain tissue was digested with 0.6 mg/ml papain at 37° C. for 20 min. Forebrains were washed with plating media [Neurobasal (Gibco), 5% FBS, 4 mM GlutaMAX (Gibco), 2 μg/ml gentamicin]. The tissue was gently triturated, allowed to settle and the supernatant was filtered through a 40 μm mesh-sized cell strainer. Cells were centrifuged at 420×g for 4 min and resuspended in plating media. 15,000 cells per well were plated with 2×10^8 viral particles/ml onto black Greiner μClear (Cat #781946) or Ultra-Low Base Aurora with evaporation barrier (Cat #ABE201201B) 384-well plates (80 μl/well) pre-coated with poly-D-lysine for the primary screen and rescreen, respectively. Plating and media changes were performed using an automated Biomek FX^P liquid handling workstation. Four hr after plating, 75% of the plating media was replaced by feeding media [Neurobasal-A (Gibco), 4 mM GlutaMAX (Gibco), 2 μg/ml gentamicin, 2% B27 (Gibco)]. At DIV4, 50% of the media was exchanged with fresh feeding media supplemented with 16 μM 5-Fluoro-2′-deoxyuridine (FUdR) to prevent glial cell over-growth. At DIV8 and DIV12, additional 50% media changes were made without FUdR. Cells were maintained at 37° C. and 5% CO2; plates were topped with Breathe-Easy adhesive membranes (Greiner plates) to minimize evaporation.
Compounds and compound transfer.
Imaging. Images were captured using a GE Incell 6000 system (60× objective, 0.95 NA, 16-bit images) equipped with environmental control (37° C., 5% CO2). Mt-GFP (green channel) was imaged by confocal imaging (3 slices, Δz=0.7 μm, aperture=1.0 AU, λexc=488 nm, λem=515-535 nm). Cyto-tdTomato (red channel) and MitoTracker Orange (red channel) were imaged using confocal mode (3 slices, Δz=0.7 μm, aperture=1.0 AU, λexc=561 nm, λem=569-641 nm, MitoTracker Orange) or with widefield mode (Cyto-tdTomato). TMRM imaged for the co-localization experiments with Mt-GFP was imaged using the confocal mode (3 slices, […] aperture=1.0, λexc=488, λem=569-641 nm). For the live-dead assay, primary neurons were imaged with a 20× (widefield mode, NA 0.45) objective using λexc=561 nm and λem=569-641 nm for the propidium iodide stained dead cells (red channel), and λexc=488 nm and λem=515-535 nm for the fluorescein diacetate stained live cells (green channel). 10 fields were collected from each well, and 4 wells were imaged/condition in the live-dead assay. For all other experiments, 4 fields/well were imaged unless otherwise stated.
Automated data analysis pipeline. Most experiments utilized only Mt-GFP; some utilized both Mt-GFP and Cyto-tdTomato. The Z-projected images were preprocessed using a custom Fiji macro. For preprocessing of Mt-GFP images: background was subtracted (rolling ball, radius=3), images were median filtered (radius=1) and somatic mitochondria were removed. For removal of the somatic mitochondria, they were first segmented and then a somatic mitochondrial mask overlaid on the image.

primary neurons [2] = experiment: TMRM fluorescence assay of inner mitochondrial membrane potential (ΔΨm); conditions: for Emax: read-out: TMRM (Effect-size); for EC50: read-out: TMRM-EC50; for TMRM Primary: primary screen, 12.5 μM; for TMRM Primary / TMRM Rescreen: 24 h
primary neurons [3] = experiment: CellTiter-Glo luminescence-based ATP assay; assay type: cell-based, mouse; conditions: for ATP: ATP orthogonal screen, 24 h; for EC50: 15 concentrations from 6 nM to 100 uM; for Emax: read-out: ATP (Effect-size)
Procedure, shortened: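 Primary neurons treated from DIV13 for 24 h with compound or DMSO. After part of the medium was removed, CellTiter-Glo reagent was added; plates were shaken 10 min at 200 rpm, kept 2 min in the dark at room temperature, and luminescence read as total ATP.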

[4] = rescreen, 12.5 μM, 24 h, vs DMSO wells
[5] = 24 h, read-out: Elongation (Dend Mt length) EC50
[6] = 24 h, read-out: Health (Ax Mt Circularity) EC50
[7] = 24 h, read-out: Sprouting (Neurite Area) EC50
[8] = 24 h, read-out: Mt Content (Dend Mt CA) EC50
[9] = Mus musculus, Primary neuron, dose response
[10] = Mus musculus, Primary neuron, maximal percent increase relative to in-plate DMSO controls, dose response
[11] = maximal percent increase relative to in-plate DMSO controls, dose response

Row | Compound | Dendritic Mt CA [1, 4] [robust Z-scores] | Neurite Area [1, 4] [robust Z-scores] | TMRM Primary (primary neurons [2]) [Z-scores] | TMRM Rescreen (primary neurons [2]) [Z-scores] | ATP (primary neurons [3]) [Z-scores] | other results
1 | Cc1cccc(C)c1N=C1NCCCS1 [XYLAZINE] | 3.66 | 0.40 | – | – | – | –
2 | Cc1cccc(N(C)C(=S)Oc2ccc3ccccc3c2)c1 [TOLNAFTATE] | 2.93 | 1.01 | – | – | – | –
3 | CN1CCOC(c2ccccc2)c2ccccc2C1 (centres unmarked) [NEFOPAM] | 3.74 | −0.44 | – | – | – | –
4 | C[C@@H](N)[C@@H](O)c1ccccc1 [1R,2S-PHENYLPROPYLAMINE] | 3.14 | 1.25 | – | – | – | –
5 | FC(F)(F)C(Cl)Br (centres unmarked) [HALOTHANE] | – | – | – | – | – | Dendritic Mt CA [1]: 2.60 robust Z-scores; Neurite Area [1]: 2.65 robust Z-scores
6 | O=C(/C=C/c1ccc(O)cc1)c1ccccc1O [2′,4-DIHYDROXYCHALCONE] | 2.57 | 0.01 | – | – | – | –
7 | COc1ccc2c(c1)[nH]c1c(C)nccc12 [HARMINE] | 3.65 | −1.63 | – | – | – | EC50 [1, 5]: 1700 nM; EC50 [1, 6]: > 25000 nM; EC50 [1, 7]: > 25000 nM
8 | CC(C)CCC[C@@H](C)[C@H]1CC[C@H]2[C@@H]3CC=C4CC(=O)CC[C@]4(C)[C@H]3CC[C@]12C [CHOLEST-5-EN-3-ONE] | 2.78 | −0.65 | – | – | – | –
9 | O=c1c(O)c(-c2ccccc2)oc2cccc(O)c12 [3,5-DIHYDROXYFLAVONE] | 3.43 | 1.20 | – | – | – | –
10 | CNC(=O)Oc1cccc2ccccc12 [CARBARIL] | 2.03 | −0.48 | – | – | – | –
11 | CC12CC3CC(C)(C1)CC(N)(C3)C2 [MEMANTINE HYDROCHLORIDE] | 3.25 | 1.45 | – | – | – | confirmation in the re-screen ([1]; 12.5 μM, 10 replicate plates): weak hits
12 | CCCCCOC(=O)Nc1nc(=O)n([C@@H]2O[C@H](C)[C@@H](O)[C@H]2O)cc1F [CAPECITABINE] | 2.88 | 0.58 | – | – | – | –
13 | CCCC1O[C@@H]2C[C@H]3[C@@H]4CCC5=CC(=O)C=C[C@]5(C)[C@H]4[C@@H](O)C[C@]3(C)[C@]2(C(=O)CO)O1 (some centres unmarked) [BUDESONIDE] | 2.16 | −0.61 | – | – | – | –
14 | O=C(CCCN1CCC(O)(c2ccc(Cl)cc2)CC1)c1ccc(F)cc1 [HALOPERIDOL] | 2.99 | −2.37 | – | – | – | –
15 | C#CCN(C)CCCOc1ccc(Cl)cc1Cl [CLORGILINE HYDROCHLORIDE] | 4.33 | −0.36 | – | – | – | EC50 [1, 5]: 5000 nM; EC50 [1, 6]: 300 nM; EC50 [1, 8]: 1000 nM; EC50 [1, 7]: > 25000 nM
16 | O=C(O[C@H]1CN2CCC1CC2)N1CCc2ccccc2[C@@H]1c1ccccc1 [SOLIFENACIN SUCCINATE] | 5.06 | 1.42 | – | – | – | –
17 | CN1CCc2cccc3c2[C@H]1Cc1ccc(O)c(O)c1-3 [APOMORPHINE HYDROCHLORIDE] | 2.10 | −0.07 | – | – | – | –
18 | COc1ccccc1-c1coc2cc(O)ccc2c1=O [7-HYDROXY-2′-METHOXYISOFLAVONE] | – | – | – | – | – | EC50 [1, 6]: 200 nM; EC50 [1, 8]: > 25000 nM

Row | Compound | Dendritic Mt CA [1, 4] [robust Z-scores] | Neurite Area [1, 4] [robust Z-scores] | TMRM Primary (primary neurons [2]) [Z-scores] | TMRM Rescreen (primary neurons [2]) [Z-scores] | ATP (primary neurons [3]) [Z-scores] | other results
19 | CC1=C(/C=C/C(C)=C/C=C/C(C)=C\C(=O)O)C(C)(C)CCC1 [ISOTRETINON] | 2.69 | 0.77 | – | – | – | –
20 | CC[C@H]1CN2CC[C@H]1C[C@@H]2[C@@H](O)c1ccnc2ccc(OC)cc12 [HYDROQUINIDINE] | 2.19 | −0.15 | – | – | – | –
21 | C=C(C)c1cc2cc(C(C)=O)c(O)cc2o1 [EUPARIN] | 4.22 | 1.17 | – | – | – | –
22 | COc1ccc2c(c1)[C@]13CCCC[C@@H]1[C@H](C2)N(C)CC3 [DEXTROMETHORPHAN HYDROBROMIDE] | – | – | – | – | – | Dendritic Mt CA [1]: 2.38 robust Z-scores; Neurite Area [1]: 0.21 robust Z-scores
23 | O=C(CCc1ccc(O)cc1)c1c(O)cc(O)cc1O [PHLORETIN] | 2.73 | 1.23 | – | – | – | –
24 | O=c1c(O)c(-c2ccccc2)oc2cc(O)ccc12 [3,7-DIHYDROXYFLAVONE] | 2.78 | 1.37 | – | – | – | –
25 | OC(CCN1CCCCC1)(c1ccccc1)C1CCCCC1 (centres unmarked) [trihexyphenidyl hydrochloride] | – | – | 6.07 | 7.08 | 5.95 | Emax (primary neurons [2]; Mus musculus, Primary neuron): 20%; EC50 (primary neurons [2]; Mus musculus, Primary neuron): 3200 nM; EC50 (primary neurons [3]; [9]): 170 nM; Emax (primary neurons [3]; [10]): 17.8%
26 | O=c1[nH]c2ccccc2n1CCCN1CCC(n2c(=O)[nH]c3cc(Cl)ccc32)CC1 [DOMPERIDONE] | – | – | 3.33 | 5.58 | 5.20 | Emax (primary neurons [2]; Mus musculus, Primary neuron): 28.3%; Emax (primary neurons [3]; [10]): 13%
27 | CCN(CC)CCOC(=O)C(c1ccccc1)c1ccccc1 [adiphenine hydrochloride] | – | – | 3.05 | 3.21 | 4.95 | –
28 | CNCCC=C1c2ccccc2CCc2ccccc21 [nortriptyline hydrochloride] | – | – | 3.77 | 5.25 | 5.66 | Emax (primary neurons [2]; Mus musculus, Primary neuron): 21%; EC50 (primary neurons [2]; Mus musculus, Primary neuron): 550 nM; EC50 (primary neurons [3]; [9]): 200 nM; Emax (primary neurons [3]; [10]): 16.5%
29 | COc1ccc(CN(CCN(C)C)c2ncccn2)cc1 [thonzylamine hydrochloride] | – | – | 3.16 | 3.21 | 5.17 | –
30 | pizotyline malate | – | – | 3.21 | 5.84 | 7.13 | TMRM (Effect-size) (primary neurons [2]; [11]): 25.2%; EC50 (primary neurons [2]; dose response, 15 concentrations from 6 nM to 100 uM): 2600 nM; EC50 (primary neurons [3]; dose response): 360 nM; ATP (Effect-size) (primary neurons [3]; [11]): 17.9%
31 | CCN(CC)CCOC(=O)C(c1ccccc1)C1CCCCC1 (centres unmarked) [drofenine hydrochloride] | – | – | 3.68 | 5.96 | 4.84 | –
32 | C[N+]12CCC(CC1)C(OC(=O)C(O)(c1ccccc1)c1ccccc1)C2 (centres unmarked) [clidinium bromide] | – | – | 2.49 | 4.11 | 6.21 | Emax (primary neurons [2]; Mus musculus, Primary neuron): 14.3%; EC50 (primary neurons [2]; Mus musculus, Primary neuron): 450 nM; EC50 (primary neurons [3]; [9]): 420 nM; Emax (primary neurons [3]; [10]): 20.5%
33 | CCc1nn(CCCN2CCN(c3cccc(Cl)c3)CC2)c(=O)n1CCOc1ccccc1 [nefazodone hydrochloride] | – | – | 4.00 | 6.11 | 6.30 | –
34 | butacaine sulfate | – | – | 3.85 | 5.06 | 6.99 | –
35 | CN(C/C=C/c1ccccc1)Cc1cccc2ccccc12 [naftifine hydrochloride] | – | – | 3.26 | 4.64 | 4.65 | –
